# Assay results as given in article PMC9468151, “Identification of a binding site on soluble RANKL that can be targeted to inhibit soluble RANK-RANKL interactions and treat osteoporosis” (Nature Communications, 2022).
# “And” between values parts separate entries of the source, which are not always exact repeats. Equal entries are not always repeated.
# How the values were obtained:
# [1] = system: mRANKL induced osteoclastogenesis; assay: mRANKL induced osteoclastogenesis assay; assay type: cell-based, mouse; details: for OC inhibitory ratio, mRANKL induced (fig. 3d IC50 curve data): replicates
# OVX mice = assay: Mice peripheral blood T lymphocyte subsets analysis; assay type: in vivo, mouse; details: OVX mice + S3-15 4 weeks, individual animals
# Source text: In order to study the effect of S3-15 on the immune system, after 4 weeks of S3-15 treatment, orbital venous blood with EDTA-anticoagulated was collected for T lymphocyte subsets analysis in osteoporosis mice. We used flow cytometric to determinate T lymphocyte subsets according to the guidelines for Flow Cytometric of Beckman Coulter, FC500. Cells were stained according to manufacturer’s instruction of PE-Cyanine7 anti-Human CD8a and PE anti-Human CD4 antibodies (Tonbo Biosciences). Data analyzing was performed by using CXP software (Beckman Coulter, Supplementary Fig. 9).
# [2] = system: WT sRANKL or Q238A sRANKL induced osteoclast formation; assay: Rescue experiment: osteoclast formation induced by WT or Q238A sRANKL; assay type: cell-based, mouse
# Experimental: For the osteoclast formation induced by WT and Q238A sRANKL experiments, BMMs were seeded in 96-well plate in density of 6 × 10^3 cell/ well with α-MEM completed medium containing 10 ng/mL M-CSF for 24 h. Then the cells were treated with 0 μM, 0.3 μM, 3 μM and 10 μM and stimulated with 100 ng/mLWT sRANKL or Q238A sRANKL respectively. For the osteoclast formation induced by WT, W194A, and H226A sRANKL experiments, cells were stimulated with 100 ng/mL WT sRANKL combined W194A, H226A sRANKL in different concentrations (50 ng/mL, 200 ng/mL, and 400 ng/mL) with or without 10 μM S3-15. After 5 days, osteoclasts were formed, and applied TRAP-staining as described above. TRAP-positive multinucleated cells with > 3 nuclei were scored as osteoclasts.
# OVX rats = assay: Serum biochemical markers determination; assay type: in vivo, rat; parameters: TG / ALT / AST / ALP / GLU / TC / Ca / TBA / TBIL / BUN / CREA: unit not given here
# Source text: After treating with S3-15 for 12 weeks, rat serum was harvested and analyzed routine blood biochemical markers, including calcium (Ca), phosphorus (P), total cholesterol (TC), triglyceride (TG), glucose (Glu), aspartate aminotransferase (AST), alanine aminotransferase (ALT), alkaline phosphatase (ALP), total bile acid (TBIL), total bilirubin (TBA), creatinine (CREA), urea nitrogen (BUN). Ca, P, AST, ALT, ALP, CREA, and BUN were purchased from Wako Pure Chemical, Japan; Glu,TC, TG, TBIL, and TBA were purchased from Kehua Bio-engineering Co.LTD, China. Routine blood biochemical markers were examined with a Hitachi chemistry automated analyzer (Hitachi 7020, Japan) according to manufacturer’s instruction.
# sRANKL = molecular target: T1, sRANKL (Rattus norvegicus, UniProt Q9ESE2, D175N); assay: STD NMR binding assay with sRANKL; details: 100 μM protein, 5 mM compound
# T1 construct: (1) sRANKL (rat 159-318 aa); His6-sumo (N, cleaved yes); made in house; host or cells: Escherichia coli BL21 (DE3)
# T1 sequence (Q9ESE2 159-318 D175N): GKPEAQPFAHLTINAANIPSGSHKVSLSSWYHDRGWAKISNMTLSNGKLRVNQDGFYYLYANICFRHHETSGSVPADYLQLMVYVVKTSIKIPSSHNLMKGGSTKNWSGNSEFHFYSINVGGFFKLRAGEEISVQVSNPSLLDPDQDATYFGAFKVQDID
# Experimental: For NMR studies, purified sRANKL or L-RANKL protein samples were buffer exchanged into PBS (Gbico, C10010500BT, pH7.4) using a Millipore spin column (1500 × g for 15 min at 4 °C, repeated six times, each time adding fresh PBS and discarding the flow-through). Protein concentration was determined using BCA method according to the procedure of Pierce^TM BCA Protein Assay Kit (Thermo Fisher Scientific). Compound S3-15 powder was dissolved in H2O as a concentration of 10 mM.
# Protein saturation transfer difference (STD) experiments were performed on Bruker Avance III 500 (500 MHz) spectrometer (Columbia University) at 300 K using triple-resonance cryogenic probes optimized for proton detection. All experiments were performed using an independent sample for each experimental measurement as a 500 μL sample in NMR tubes with 100 μM protein and […] S3-15 in final concentration. Uniformly, for STD assay all samples were contained 50 μL protein, 200 μL S3-15 (10 mM in H2O), and 250 μL D2O; for S3-15 two-dimensional spectra reference, samples were 50 μL PBS, 200 μL S3-15 (10 mM in H2O) and 250 μL D2O.
# [3] = molecular target: T2, human mRANKL and human OPG (Homo sapiens, UniProt O14788); assay: mRANKL-OPG binding, HEK 293T cells with full length human RANKL; assay type: cell-based
# T2 construct: HEK 293 T cells that transfer full length mouse RANKL or human RANKL; expressed in transfected cells; host or cells: HEK293T
# Experimental: mRANKL-OPG: MC3T3-E1 cells were differentiated by osteoblast differentiation medium (Pythonbio, China) for 2 days. Then cells were exposed to 1 M NaCl for 5 minutes to remove endogenous OPG, washed once in PBS, and fixed with 70% ethanol for 5 minutes at 4 °C. Fixed cells were wash once by PBS and then exposed to PBS that containing 100 ng mouse OPG (Sino, China) or 100 ng mouse OPG with 1 μM S3-15 and incubated for an additional 30 min at 4 °C. Cell layers were washed 2 times with PBS and lysed with 1% triton in PBS. The concentration of OPG in cell lysates were measured with an OPG ELISA kit (USCN, China). Similar proceed were performed using HEK 293 T cells that transfer full length mouse RANKL or human RANKL.
# [4] = serum, OVX rats, individual animals
# T2 sequence (O14788 whole entry): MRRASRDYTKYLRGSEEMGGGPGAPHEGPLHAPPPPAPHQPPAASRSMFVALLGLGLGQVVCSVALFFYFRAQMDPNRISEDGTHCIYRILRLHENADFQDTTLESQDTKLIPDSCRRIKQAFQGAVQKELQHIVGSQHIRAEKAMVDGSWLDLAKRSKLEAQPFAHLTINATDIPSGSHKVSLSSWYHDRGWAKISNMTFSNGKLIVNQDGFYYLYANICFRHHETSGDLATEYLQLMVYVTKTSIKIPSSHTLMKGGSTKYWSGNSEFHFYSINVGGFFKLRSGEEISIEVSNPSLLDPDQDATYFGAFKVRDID
smiles,measurement,setting,value
CC(=O)/C(=N\Nc1ccccc1C(=O)O)C(=O)Nc1ccccn1 [S3-15],"OC inhibitory ratio, mRANKL induced (fig. 3d IC50 curve data)",[1]; 0.0023464 μM,-1.8319 and -1.185 and 3.987
same,"OC inhibitory ratio, mRANKL induced (fig. 3d IC50 curve data)",[1]; 0.00774313 μM,-0.2155 and 3.341 and 0.431
same,"OC inhibitory ratio, mRANKL induced (fig. 3d IC50 curve data)",[1]; 0.0255523 μM,1.724 and 9.483 and -1.8319
same,"OC inhibitory ratio, mRANKL induced (fig. 3d IC50 curve data)",[1]; 0.0843226 μM,10.4526 and 18.2112 and 10.1293
same,"OC inhibitory ratio, mRANKL induced (fig. 3d IC50 curve data)",[1]; 0.278265 μM,19.8276 and 9.806 and 12.7155
same,"OC inhibitory ratio, mRANKL induced (fig. 3d IC50 curve data)",[1]; 0.918274 μM,19.8276 and 9.806 and 12.7155
same,"OC inhibitory ratio, mRANKL induced (fig. 3d IC50 curve data)",[1]; 3.0303 μM,46.6595 (2×) and 50.5388
same,"OC inhibitory ratio, mRANKL induced (fig. 3d IC50 curve data)",[1]; 10 μM,62.8233 (2×) and 61.5302
same,"OC inhibitory ratio, mRANKL induced (fig. 3d IC50 curve data)",[1]; 33 μM,90.3017 and 88.3621 and 89.6552
same,IC50,"[1]; Mus musculus, +mRANKL",4.14 µM
same,"CD3+, % in peripheral lymphocyte",OVX mice,36.27% and 37.35% and 37.5% and 36.96% and 36.85% and 38.5% and 35.97% and 34.6%
same,"CD3+CD4+, % in CD3+ T cell",OVX mice,61.95% and 60.18% and 56.07% and 64.9% and 64.44% and 61.9% and 58.71% and 64.19%
same,"CD3+CD4+, % in peripheral lymphocyte",OVX mice,22.2% and 22.32% and 20.69% and 23.69% and 23.71% and 23.61% and 23.29% and 21.4%
same,"CD3+CD8+, % in CD3+ T cell",OVX mice,30.94% and 33.61% and 35.99% and 30.67% and 29.41% and 32.61% and 35.04% and 29.24%
same,"CD3+CD8+, % in peripheral lymphocyte",OVX mice,11.41% and 12.7% and 13.52% and 11.4% and 10.94% and 12.69% and 10.21% and 10.64%
same,"CD4+, % in peripheral lymphocyte",OVX mice,22.3% and 22.29% and 20.64% and 23.66% and 23.37% and 23.65% and 23.23% and 21.42%
same,"CD8+, % in peripheral lymphocyte",OVX mice,11.28% and 12.51% and 13.34% and 11.29% and 10.72% and 12.52% and 9.72% and 10.53%
same,CD4+/CD8+ in CD3+ T cell,OVX mice; ratio,2.002 and 1.791 and 1.558 and 2.116 and 2.191 and 1.898 and 1.676 and 2.195
same,CD4+/CD8+ in peripheral lymphocyte,OVX mice; ratio,1.946 and 1.757 and 1.53 and 2.078 (2×) and 2.167 and 1.861 and 2.011
same,osteoclastogenesis when incubated with Q238A sRANKL,[2]; Q238A sRANKL,cannot block osteoclastogenesis
same,Number of OCs,"[2]; Q238A sRANKL 100 ng/mL, S3-15 0.3 μM",268 and 278 and 265
same,Number of OCs,"[2]; Q238A sRANKL 100 ng/mL, S3-15 3 μM",250 and 279 and 269
same,Number of OCs,"[2]; Q238A sRANKL 100 ng/mL, S3-15 10 μM",265 and 279 and 270
same,Number of OCs,"[2]; WT RANKL 100 ng/mL, S3-15 0.3 μM",142 and 135 and 149
same,Number of OCs,"[2]; WT RANKL 100 ng/mL, S3-15 3 μM",35 and 57 and 40
same,organ toxicity / routine blood examination,"OVX rats; rats, 12 weeks treatment",no organ toxicity in vivo
same,ALP,OVX rats; [4],35 and 77 and 34 and 39 and 60 and 23 and 42 and 48 and 49
same,ALT,OVX rats; [4],29 and 34 and 37 and 33 and 38 and 25 and 28 and 32 and 39
same,AST,OVX rats; [4],82 and 90 and 88 and 109 and 96 and 114 and 85 and 87 and 95
same,BUN,OVX rats; [4],5.99 and 5.28 and 6.41 and 6.31 and 5.6 and 5.72 and 5.71 and 5.18 and 6
same,CREA,OVX rats; [4],58.7 and 57.9 and 57 and 66.1 and 49.8 and 56.6 and 56.8 and 65.7 and 60.7
same,Ca,OVX rats; [4],2.46 and 2.39 and 2.41 and 2.43 and 2.15 and 2.33 and 2.34
same,GLU,OVX rats; [4],10.2096 and 9.028 and 12.7431 and 8.981 and 13.9764 and 7.763 and 10.2611 and 9.122 and 11.2914
same,TBA,OVX rats; [4],26.48 and 20.71 and 36.69 and 15.65 and 15.57 and 21.76 and 21.4 and 18.86 and 18.33
same,TBIL,OVX rats; [4],1.84 and 1.07 and 1.06 and 1.28 and 0.95 and 0.98 and 0.77 and 0.97 and 0.78
same,TC,OVX rats; [4],2.99 and 2.55 and 2.35 and 2.13 and 2.5 and 2.24 and 2.36 and 2.45
same,TG,OVX rats; [4],1.05 and 0.75 and 0.49 and 0.31 and 0.47 and 0.65 and 0.46 and 0.64
same,STD-NMR binding to sRANKL,sRANKL,binds to sRANKL
same,human mRANKL and human OPG binding,[3]; 1 μM,no effects
same,mRANKL-OPG binding signal (fig. S4p),[3]; OPG+S3-15,0.1995 and 0.1932 and 0.1954
